Measurements reported in patent publication EP2588472B1, “RUPATADINE derivative AS AN ANTIHISTAMINIC AGENT” (J. Uriach y Compania S.A., priority 2010, dated 2012).

How the values were obtained:
human H1 receptor = biological target: T1, human H1 receptor (Homo sapiens, UniProt P35367); assay: standard H1 binding assay ([3H]-pyrilamine displacement, scintillation counting); conditions: recombinant HEK-293 derived membranes, [3H]-pyrilamine 1 nM, 22°C, 60 minutes
T1 construct: expressed in transfected cells; host or cells: HEK-293 (membranes)
Procedure: The antiH1 activity of Compound II was assayed using a standard H1 binding assay. The test was performed following a protocol based on Smit et al. (Brit. J. Pharmacol. 1996 117(6), 1071-1080): the binding was performed on recombinant HEK-293 cells expressing the human H1 receptor. The reference compound was [^3H]-pyrilamine at 1 nM. Recombinant HEK-293 derived membranes were incubated at 22°C for 60 minutes with [^3H]-pyrilamine in the presence of different concentrations of compound II. Measurements were carried out using scintillation counting.

solubility in water = format: physicochemical
[1] = stated in background; cited from earlier work

T1 sequence (P35367 whole entry): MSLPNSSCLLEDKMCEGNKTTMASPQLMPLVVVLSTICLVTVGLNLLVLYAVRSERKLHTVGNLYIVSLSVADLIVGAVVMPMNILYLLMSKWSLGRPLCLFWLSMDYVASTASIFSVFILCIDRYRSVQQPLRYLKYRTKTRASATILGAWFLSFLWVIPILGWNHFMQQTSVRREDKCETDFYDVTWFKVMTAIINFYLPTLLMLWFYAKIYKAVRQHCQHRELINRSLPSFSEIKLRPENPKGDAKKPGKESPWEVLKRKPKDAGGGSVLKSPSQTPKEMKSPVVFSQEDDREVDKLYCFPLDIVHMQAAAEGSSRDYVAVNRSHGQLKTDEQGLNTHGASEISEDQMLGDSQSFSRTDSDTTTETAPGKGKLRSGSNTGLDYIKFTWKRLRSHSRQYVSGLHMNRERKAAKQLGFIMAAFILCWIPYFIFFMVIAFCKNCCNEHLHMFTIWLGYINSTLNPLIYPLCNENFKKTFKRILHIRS

| Compound | IC50 (human H1 receptor) [µM] | solubility (solubility in water) [mg/mL] | solubility in water [1] [mg/mL] |
| --- | --- | --- | --- |
| Cc1cc(CN2CCC(=C3c4ccc(Cl)cc4CCc4cccnc43)CC2)c[n+](C(CC(=O)O)C(=O)[O-])c1 (stereo not drawn) [Compound II] | 0.37 | > 50 | – |
| Rupatadine fumarate | – | – | 2.9 |
